Data set [1] relates to p53 target genes. The data set can be described thus: Quantitative RT-PCR of p53 target genes in MCF-7 and T47D cells. Type of data set: cell-based. Conditions: 1 µM, absence and presence of E2, 16 h. The protocol: (§1) MCF-7, T47D and LNCaP cells (5×10^4 each) were seeded in 6-well plates and cultured with hormone-depleted medium for 3 days. Subsequently, the MCF-7 and T47D cells were treated with 10 nM 17-β-estradiol (E2) or dihydrotestosterone (DHT) for the LNCaP cells, 1 µM) X15695 (for the MCF-7 and T47D cells) or 5 µM) for LNCaP cells and X15695 together with E2 or DHT. A 1 h pre-treatment with X15695 was performed prior to treatment with E2 or DHT for 16 h. RNA was extracted using innuPREP RNA mini Kit 2.0 (Analytic Jena, Berlin, Germany). 1 µg RNA per sample was used as input material for the RNA sample preparations. Sequencing libraries were generated using NEBNext® UltraTM RNA Library Prep Kit for Illumina® (NEB, USA) following the manufacturer's recommendations and index codes were added to attribute sequences to each sample. The clustering of the index-coded samples was performed on a cBot Cluster Generation System using PE Cluster Kit cBot-HS (Illumina) according to the manufacturer's instructions. After cluster generation, the library preparations were sequenced on an Illumina platform and paired-end reads were generated. Library preparation and sequencing were carried out by Novogene Europe, Cambridge, UK. […] Select target genes were analyzed by RT-PCR experiments with RNA from the samples used for the RNA-seq analysis. […]

The target in data set [2] is T1, BAG2 with mutant p53 (Homo sapiens, UniProt O95816).
T1 construct: endogenous in cells; host or cells: T47D
The data set can be described thus: Co-immunoprecipitation in T47D cells. Type of data set: cell-based. The following applies: 1 µM, 48 h. The method, then: (§2) Cells were harvested, washed with PBS, and lysed using NP-40 lysis buffer. Protein A agarose beads (Thermo Fisher Scientific) were mixed with protein G agarose beads (Thermo Fisher Scientific) (4:1) and preincubated overnight at 4°C with anti-p53 or anti-BAG1 or control IgG antibody. Cellular extracts from X15695 treated and untreated cells (1,000 µg) were incubated with antibody-preincubated protein A/G agarose beads for 3 to 4 h at room temperature. The beads with immunoprecipitated proteins were collected at 4°C by centrifugation at 1,000 g for 5 min and washed 4 to 5 times with NP-40 lysis buffer. The immunoprecipitated proteins were eluted by heating in SDS sample buffer for 5 min at 95°C and resolved on SDS-PAGE. Thereafter, they were subjected to Western blot analysis to detect mortalin, BAG1, BAG2, BAG5 and p53. Cellular extracts containing 50 to 70 µg protein from X15695 treated and untreated cells were used as the input control for the targeted proteins.

Data set [3] has as its target T2, BAG5 with mutant p53 (Homo sapiens, UniProt Q9UL15).
T2 construct: endogenous in cells; host or cells: T47D
The data set can be described thus: Co-immunoprecipitation in T47D cells. The format is cell-based. The following applies: 1 µM, 48 h. The method, then:
as §2

The subject of data set [4] is U2OS. The data set can be described thus: Clonogenic assay (clonal expansion). Conditions: U2OS (osteosarcoma). Type of data set: cell-based. The protocol:
(§3) Cells were seeded at a density of 1-2×10^3 cells/well in a 6 well plate in RPMI 1640 supplemented with 10% FBS, penicillin (100 u/ml), streptomycin (100 u/ml), and L-glutamine (2 mM). Cells were treated with increasing concentrations of X15695 and cultured for 14 to 21 days. Medium and compounds were exchanged after 7 days. Cells were fixed with methanol/ acetic acid mixture (3:1 v/v) and the formation of colonies was visualized using 0.5% crystal violet (w/v) in 20% methanol (v/v). Plates were scanned in a conventional office scanner (Epson). The area covered by colonies was calculated using the ColonyArea Plugin for ImageJ.

For data set [5], the system named is A549. Briefly: Clonogenic assay (clonal expansion). The following applies: A549 (lung). Type of data set: cell-based. The method, then: as §3
Data set [6] deals with ZR75-1. Briefly: Clonogenic assay (clonal expansion). The format is cell-based. Conditions: Homo sapiens, ZR-75-1; Breast Cancer (ZR75-1), ER+; inhibition of clonal expansion. The method, then: as §3
For data set [7], the system named is T47D. Briefly: Clonogenic assay (clonal expansion). The format is cell-based. Conditions: Homo sapiens; Breast Cancer (T47D), ER+; inhibition of clonal expansion. The protocol: as §3
Data set [8] deals with 22Rv.1. Briefly: Clonogenic assay (clonal expansion). Conditions: Homo sapiens, 22Rv1; Prostate Cancer (22Rv.1), AR+; inhibition of clonal expansion. The format is cell-based. The method, then:
as §3

Data set [9] has as its system HeLa. The data set can be described thus: Clonogenic assay (clonal expansion). Type of data set: cell-based. Conditions: HeLa (cervical). The method, then: as §3
Data set [10] concerns LNCaP. The data set can be described thus: Clonogenic assay (clonal expansion). The format is cell-based. The following applies: Homo sapiens; Prostate Cancer (LNCaP), AR+; inhibition of clonal expansion. The protocol: as §3
In data set [11] the test system is BAG1. The data set can be described thus: Western blot of BAG1 level in breast cancer cells. The format is cell-based. Conditions: MCF-7 and T47D cells, 48 h. Background: In western blotting, separated proteins are transferred to a membrane and probed.
Description: For Western blotting, cells were lysed in NP-40 lysis buffer (1% NP-40, 50 mM Tris-HCl, pH 8.0, 150 mM NaCl, 5 mM EDTA) or 1× passive lysis buffer (Promega, Germany) for 15 min on ice. Cell debris was removed by centrifugation at 13,000 rpm for 10 min and used for SDS-polyacrylamide gel electrophoresis (PAGE) and Western blotting.
Western Blotting was carried out using standard protocols with antibodies: p53 (clone DO1), p53 (Sp5, Thermo Fisher Scientific Karlsruhe, Germany), Mdm2 (4B2, Abcam, Cambridge, UK). […] Secondary goat anti-mouse and goat anti-rabbit antibodies were purchased from DAKO (Bollschweil, Germany).
The subject of data set [12] is LAPC-4 tumors. Briefly: Mouse xenograft experiment, LAPC-4. Type of data set: in vivo. The following applies: LAPC-4 xenograft, 42 days. The protocol:
MCF-7 and LAPC-4 cells (2×10^6) were suspended in 100 µl PBS: Matrigel (Corning NY USA, 1:1) and injected subcutaneously into both flanks of 6-7 weeks old female (for MCF-7 cells) and male (for LAPC-4 cells) athymic nude-Foxn1^nu mice (Envigo RMS GmbH, Düsseldorf, Germany). When tumor volumes were around 50 to100 mm^3, mice were randomized into four groups (7 mice per group) and treated daily by oral gavage as follows: (1) Control group (Vehicle) (corn oil, 1.0% dimethyl sulfoxide (DMSO) and (2) X15695 group, 30 mg per kg body weight) for the MCF-7 tumors or (1) Control group (Vehicle) (corn oil, 1.0% dimethyl sulfoxide (DMSO) ([…]), (3) X15695 group, 30 mg per kg body weight) and, (4) X15695 group (15 mg per kg body weight) for the LAPC-4 tumors. Body weight and tumor volumes were measured twice a week. Tumor volume was measured with a digital vernier caliper and calculated using the formula vol = length × width × height × 0.5236 and recorded or calculated relative to the starting volume which was nominally set at 100%. After 16 days for the MCF-7 tumors or 42 days for the LAPC-4 tumors, mice were sacrificed and the tumors removed, photographed, and weighed. Percent body weight change was calculated using the following formula: group percent weight change = [(new weight - initial weight)/initial weight] × 100]. Tumors were snap-frozen and stored for Western blot analysis.

Data set [13] has as its system ERα response genes. Briefly: Quantitative RT-PCR of ERα response genes in MCF-7 and T47D cells. Type of data set: cell-based. Conditions: 1 µM, 10 nM E2, 16 h. The method, then:
as §1

T2 sequence (Q9UL15 whole entry, stated change not applied): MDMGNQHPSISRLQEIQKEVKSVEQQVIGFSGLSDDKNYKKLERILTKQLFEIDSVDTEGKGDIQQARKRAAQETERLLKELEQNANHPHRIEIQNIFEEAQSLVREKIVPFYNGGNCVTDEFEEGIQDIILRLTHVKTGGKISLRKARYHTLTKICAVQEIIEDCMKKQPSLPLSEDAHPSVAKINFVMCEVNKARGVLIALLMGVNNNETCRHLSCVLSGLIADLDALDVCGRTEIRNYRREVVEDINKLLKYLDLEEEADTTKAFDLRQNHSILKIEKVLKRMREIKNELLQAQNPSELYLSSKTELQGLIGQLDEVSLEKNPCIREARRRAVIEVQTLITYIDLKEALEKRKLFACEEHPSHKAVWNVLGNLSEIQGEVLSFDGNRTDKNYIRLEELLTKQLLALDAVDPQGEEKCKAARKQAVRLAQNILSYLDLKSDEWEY
T1 sequence (O95816 whole entry, stated change not applied): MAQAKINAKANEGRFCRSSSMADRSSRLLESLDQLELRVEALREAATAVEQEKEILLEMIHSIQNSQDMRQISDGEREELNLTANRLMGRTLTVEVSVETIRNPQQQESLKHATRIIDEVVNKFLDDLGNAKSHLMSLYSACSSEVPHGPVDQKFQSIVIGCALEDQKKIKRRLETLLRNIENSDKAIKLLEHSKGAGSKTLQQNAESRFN

As to `Fc1ccc(-c2cn3cc(C(F)(F)F)cc(Cl)c3n2)cc1` [Compound X15695, 8-Chloro-2-(4-fluorophenyl)-6-(trifluoromethyl)imidazo[1,2-a]pyridine], in data set [1], the “expression of p53 target genes” value is reported as “upregulation of expression of p53 target genes”. Besides, the “interaction of BAG2 with mutant p53” value in [2] is reported as “disrupts the interaction of BAG2”. Further, the “interaction of BAG5 with mutant p53” value in data set [3] was “not BAG5”. Besides, the “effect on clonal expansion” value in [4], in data set [5] and in [9] was “did not have any effect” in each case. Besides, the IC50 in [6] stood at 7.3 ± 1.6 nM; in [7] it was 10.4 ± 2.8 nM; in data set [8], 40.2 ± 16.7 nM; in [10], 14.1 nM. In data set [11], the “level of the BAG1 proteins” value is listed as “dose-dependent decrease in the level of the BAG1 proteins”. For the same compound, the tumor growth entry in data set [12] (oral 30 mg/kg/day, less effective than enzalutamide (10 mg/kg/day)) is listed as “effectively inhibit tumor growth over vehicle”. Further, the “tolerability, body weight” value in data set [12] (oral) is “well tolerated during the study and no sign of toxicity or weight loss was observed”. Besides, the E2-mediated gene expression result in data set [13] was “downregulation of E2-mediated gene expression”.

As a reminder, the IC50 is the concentration at which inhibition is half-maximal. Lower therefore signals greater potency.

Source of the values: patent publication EP4417202A1, “ANTI-CANCER ACTION OF BAG1-SELECTIVE IMIDAZOPYRIDINE COMPOUNDS IN STEROID HORMONE RECEPTOR-POSITIVE BREAST AND PROSTATE CANCER” (Karlsruher Institut für Technologie, priority 2023, dated 2024).
